Data: paper PMC12396409, “Screening and hit evaluation of a microbial metabolite library against the pathogenic Plasmodium falciparum and Toxoplasma gondii parasites” (International Journal for Parasitology: Drugs and Drug …, 2025)
Read-outs that look alike come from different tables or passages of the source.

Experiments:
[1] = system: T. gondii RH strain (RH-Tub-eYFP) tachyzoites; experiment: microbe, parasite or virus in culture; assay type: cell-based, Toxoplasma gondii; details: 72 h; for percent parasite growth at 2 µg/mL: Toxoplasma gondii
[2] = system: P. falciparum 3D7 parasites; experiment: P. falciparum growth inhibition assay, 2-cycle (120 h treatment), delayed-death screen and dose-response; assay type: cell-based, Plasmodium falciparum; details: for activity at 2 µg/mL: Plasmodium falciparum
[3] = system: P. falciparum 3D7 parasites; experiment: P. falciparum growth inhibition assay, 1-cycle (72 h treatment), SYBR DNA staining (library screen at 2 μg/mL and dose-response); assay type: cell-based, Plasmodium falciparum; details: for activity at 2 µg/mL: Plasmodium falciparum
[4] = T. gondii, parasite screen 2 μg/mL, % growth, replicate 1
[5] = T. gondii, parasite screen 2 μg/mL, % growth, replicate 2
[6] = P. falciparum, 120 h, parasite screen 2 μg/mL, % growth, replicate 1
[7] = P. falciparum, 120 h, parasite screen 2 μg/mL, % growth, replicate 2
[8] = P. falciparum, 72 h, parasite screen 2 μg/mL, % growth, replicate 1
[9] = P. falciparum, 72 h, parasite screen 2 μg/mL, % growth, replicate 2
[10] = library screen at 2 μg/mL, % growth, replicate 1
[11] = library screen at 2 μg/mL, % growth, replicate 2
[12] = library screen at 2 μg/mL, 120 h, % growth, replicate 1
[13] = library screen at 2 μg/mL, 120 h, % growth, replicate 2
[14] = library screen at 2 μg/mL, 72 h, % growth, replicate 1
[15] = library screen at 2 μg/mL, 72 h, % growth, replicate 2
[16] = 3D7, P. falciparum, 120 h, screen at 2 μg/mL, replicate 1, read-out: Pf_120h_%Growth_Rep1
[17] = 3D7, P. falciparum, 120 h, screen at 2 μg/mL, replicate 2, read-out: Pf_120h_%Growth_Rep2
[18] = 3D7, P. falciparum, 72 h, screen at 2 μg/mL, replicate 1, read-out: Pf_72h_%Growth_Rep1
[19] = 3D7, P. falciparum, 72 h, screen at 2 μg/mL, replicate 2, read-out: Pf_72h_%Growth_Rep2
[20] = T. gondii, screen at 2 μg/mL, replicate 1
[21] = T. gondii, screen at 2 μg/mL, replicate 2
[22] = P. falciparum, 120 h, screen at 2 μg/mL, replicate 1
[23] = P. falciparum, 120 h, screen at 2 μg/mL, replicate 2
[24] = P. falciparum, 72 h, screen at 2 μg/mL, replicate 1
[25] = P. falciparum, 72 h, screen at 2 μg/mL, replicate 2
[26] = T. gondii, parasite screen at 2 μg/mL, % growth, replicate 1
[27] = T. gondii, parasite screen at 2 μg/mL, % growth, replicate 2
[28] = P. falciparum 3D7, 120 h, parasite screen at 2 μg/mL, % growth, replicate 1
[29] = P. falciparum 3D7, 120 h, parasite screen at 2 μg/mL, % growth, replicate 2
[30] = P. falciparum 3D7, 72 h, parasite screen at 2 μg/mL, % growth, replicate 1
[31] = P. falciparum 3D7, 72 h, parasite screen at 2 μg/mL, % growth, replicate 2

Pyripyropene A
Tg_72h_%Growth_Rep1 [1, 4]: 125.43% | Tg_72h_%Growth_Rep2 [1, 5]: 86.00% | Pf_120h_%Growth_Rep1 [2, 6]: 67.48% | Pf_120h_%Growth_Rep2 [2, 7]: 119.28% | Pf_72h_%Growth_Rep1 [3, 8]: 79.94% | Pf_72h_%Growth_Rep2 [3, 9]: 110.00%

Cc1cc(=O)c(O)cc2c1C[C@@H]1CC(C)(C)/C=C/C[C@@]3(C)Oc4cc(O)c(=O)cc(C)c4C[C@@H]3C[C@@H](O)[C@]1(C)O2 [Eupenifeldin]
Tg_72h_%Growth_Rep1 [1, 10]: 1.55% | Tg_72h_%Growth_Rep2 [1, 11]: 1.71% | 2) Growth (%) at 120 h ([2]; P. falciparum, 2 μg/mL, 120 h): 14.46% | 3) Fold change (72 h/120 h) ([2]; P. falciparum, growth at 72 h / growth at 120 h, 2 μg/mL): 2.0 | Pf_120h_%Growth_Rep1 [2, 12]: 3.95% | Pf_120h_%Growth_Rep2 [2, 13]: 24.96% | 1) Growth (%) at 72 h ([3]; P. falciparum, 2 μg/mL, 72 h): 28.81% | Mean ([3]; P. falciparum, 72 h, 2 μg/mL, mean of both replicates, growth (% of control)): 28.81 | Pf_72h_%Growth_Rep1 [3, 14]: 0.51% | Pf_72h_%Growth_Rep2 [3, 15]: 57.11%

COC(=O)C1=C2Nc3ccccc3[C@@]23CCN2C[C@]4(C[C@@H]5C[C@]67CCC[C@H]6CCN6CC[C@@]8(c9cccc(OC)c9N(C4)[C@@]58O)[C@@H]67)[C@@H]4OCC[C@]4(C1)[C@H]23 [Vobtusine]
percent parasite growth at 2 µg/mL ([1]; T. gondii, screen at 2 μg/mL, replicate 1, read-out: Tg_72h_%Growth_Rep1): 86.1% | percent parasite growth at 2 µg/mL ([1]; T. gondii, screen at 2 μg/mL, replicate 2, read-out: Tg_72h_%Growth_Rep2): 105% | activity at 2 µg/mL [2, 16]: 166% | activity at 2 µg/mL [2, 17]: 96.3% | activity at 2 µg/mL [3, 18]: 81.5% | activity at 2 µg/mL [3, 19]: 87%

CC(=O)N[C@H]1[C@H](O[C@@H]2c3ccc(c(Cl)c3)Oc3cc4cc(c3O[C@@H]3O[C@H](CO)[C@@H](O)[C@H](O)[C@H]3NC(=O)CCCCCCC(C)C)Oc3ccc(cc3Cl)C[C@H]3NC(=O)[C@H](N)c5ccc(O)c(c5)Oc5cc(O)cc(c5)[C@H](NC3=O)C(=O)N[C@H]4C(=O)N[C@H]3C(=O)N[C@@H]2C(=O)N[C@H](C(=O)O)c2cc(O)cc(O[C@H]4O[C@H](CO)[C@@H](O)[C@H](O)[C@@H]4O)c2-c2cc3ccc2O)O[C@H](CO)[C@@H](O)[C@@H]1O [Teicoplanin A2-2]
Tg_72h_%Growth_Rep1 [1, 4]: 90.69% | Tg_72h_%Growth_Rep2 [1, 5]: 106.25% | Pf_120h_%Growth_Rep1 [2, 6]: 148.39% | Pf_120h_%Growth_Rep2 [2, 7]: 93.23% | Pf_72h_%Growth_Rep1 [3, 8]: 72.71% | Pf_72h_%Growth_Rep2 [3, 9]: 85.08%

COc1cc([C@H]2[C@@]3(O)[C@H](O)[C@H]4C[C@]2(O)[C@](O)(C(=O)O4)[C@H]3C(=O)c2ccccc2)oc(=O)c1 [Enterocin]
Tg_72h_%Growth_Rep1 [1, 10]: 101.62% | Tg_72h_%Growth_Rep2 [1, 11]: 91.26% | Pf_120h_%Growth_Rep1 [2, 12]: 80.40% | Pf_120h_%Growth_Rep2 [2, 13]: 114.14% | Pf_72h_%Growth_Rep1 [3, 14]: 81.25% | Pf_72h_%Growth_Rep2 [3, 15]: 72.68%

CCCCc1ccc(C(=O)O)nc1 [Fusaric acid]
percent parasite growth at 2 µg/mL ([1]; library screen at 2 μg/mL, % growth, replicate 1, read-out: Tg_72h_%Growth_Rep1): 118% | percent parasite growth at 2 µg/mL ([1]; library screen at 2 μg/mL, % growth, replicate 2, read-out: Tg_72h_%Growth_Rep2): 83.8% | activity at 2 µg/mL ([2]; 3D7, 120 h, library screen at 2 μg/mL, 120 h, % growth, replicate 1, read-out: Pf_120h_%Growth_Rep1): 80.2% | activity at 2 µg/mL ([2]; 3D7, 120 h, library screen at 2 μg/mL, 120 h, % growth, replicate 2, read-out: Pf_120h_%Growth_Rep2): 85% | activity at 2 µg/mL ([3]; 3D7, 72 h, library screen at 2 μg/mL, 72 h, % growth, replicate 1, read-out: Pf_72h_%Growth_Rep1): 78% | activity at 2 µg/mL ([3]; 3D7, 72 h, library screen at 2 μg/mL, 72 h, % growth, replicate 2, read-out: Pf_72h_%Growth_Rep2): 31.2%

COc1cc(O)c2c(c1)C=CCC(O)C(O)C(=O)C=CCC(C)OC2=O (stereo not shown) [BIA-L1160]
Tg_72h_%Growth_Rep1 ([1]; T. gondii RH, library screen at 2 μg/mL, % growth, replicate 1): 102.73% | Tg_72h_%Growth_Rep2 ([1]; T. gondii RH, library screen at 2 μg/mL, % growth, replicate 2): 85.36% | Pf_120h_%Growth_Rep1 ([2]; P. falciparum 3D7, 120 h, library screen at 2 μg/mL, % growth, replicate 1): 96.72% | Pf_120h_%Growth_Rep2 ([2]; P. falciparum 3D7, 120 h, library screen at 2 μg/mL, % growth, replicate 2): 110.83% | Pf_72h_%Growth_Rep1 ([3]; P. falciparum 3D7, 72 h, library screen at 2 μg/mL, % growth, replicate 1): 82.21% | Pf_72h_%Growth_Rep2 ([3]; P. falciparum 3D7, 72 h, library screen at 2 μg/mL, % growth, replicate 2): 92.24%

CO/C1=C\C(C)=C\C(C)C(O)C(C)C/C(C)=C/C=C/C(OC)C(C(C)C(O)C(C)C2(O)CC(OC(=O)/C=C/C(=O)O)C(C)C(C(C)C)O2)OC1=O (stereo not shown) [Bafilomycin C1]
Tg_72h_%Growth_Rep1 [1, 10]: -0.73% | Tg_72h_%Growth_Rep2 [1, 11]: -0.13% | Pf_120h_%Growth_Rep1 [2, 12]: 3.53% | Pf_120h_%Growth_Rep2 [2, 13]: -2.55% | Pf_72h_%Growth_Rep1 [3, 14]: 1.92% | Pf_72h_%Growth_Rep2 [3, 15]: 0.47%

CC(=O)OC1CCC(C)C2C1C=C(C)C1C(C)=CCCC(C)=CC3(C)C=C(C)C(C)CC34OC(=O)C(=C(O)C12C)C4=O (stereo not shown) [Tetromycin A]
Tg_72h_%Growth_Rep1 [1, 20]: 141.34% | Tg_72h_%Growth_Rep2 [1, 21]: 89.51% | Pf_120h_%Growth_Rep1 [2, 22]: 96.09% | Pf_120h_%Growth_Rep2 [2, 23]: 91.15% | Pf_72h_%Growth_Rep1 [3, 24]: 87.03% | Pf_72h_%Growth_Rep2 [3, 25]: 84.23%

O=C1N[C@@H](Cc2ccccc2)C(=O)N[C@H]1Cc1ccccc1 [Cyclo(L-Phe-L-Phe)]
Tg_72h_%Growth_Rep1 [1, 20]: 128.27% | Tg_72h_%Growth_Rep2 [1, 21]: 97.95% | Pf_120h_%Growth_Rep1 [2, 22]: 99.78% | Pf_120h_%Growth_Rep2 [2, 23]: 97.44% | Pf_72h_%Growth_Rep1 [3, 24]: 87.79% | Pf_72h_%Growth_Rep2 [3, 25]: 85.43%

CCC1C=C(C)CC(C)CC(OC)C2OC(O)(C(=O)C(=O)N3CCCCC3C(=O)OC(C(C)=CC3CCC(Cl)C(OC)C3)C(C)C(O)CC1=O)C(C)CC2OC (stereo not shown) [BIA-P1385]
Tg_72h_%Growth_Rep1 [1, 26]: 65.99% | Tg_72h_%Growth_Rep2 [1, 27]: 84.21% | Pf_120h_%Growth_Rep1 [2, 28]: 11.40% | Pf_120h_%Growth_Rep2 [2, 29]: 13.77% | Pf_72h_%Growth_Rep1 [3, 30]: 6.43% | Pf_72h_%Growth_Rep2 [3, 31]: 7.66%

CC[C@H]1OC(=O)C[C@@H](O)[C@H](C)[C@@H](O[C@@H]2O[C@H](C)[C@@H](O)[C@H](N(C)C)[C@H]2O)[C@@H](CCN2CCCCC2)C[C@@H](C)C(=O)/C=C/C(C)=C/[C@@H]1CN1CCCCC1 [Tildipirosin]
percent parasite growth at 2 µg/mL ([1]; read-out: Tg_72h_%Growth_Rep1): 87.8% | percent parasite growth at 2 µg/mL ([1]; read-out: Tg_72h_%Growth_Rep2): 85.6% | activity at 2 µg/mL [2, 16]: 9.99% | activity at 2 µg/mL [2, 17]: 11.7% | activity at 2 µg/mL [3, 18]: 10.8% | activity at 2 µg/mL [3, 19]: 5.94%

Cc1cc(=O)c2c(o1)O[C@@]1(C)CC[C@@H]3[C@@]4(C)CC[C@H](O)C(C)(C)[C@@H]4CC[C@@]3(C)[C@@H]1C2 [Chevalone E]
Tg_72h_%Growth_Rep1 [1, 20]: 83.71% | Tg_72h_%Growth_Rep2 [1, 21]: 88.30% | Pf_120h_%Growth_Rep1 [2, 22]: 162.52% | Pf_120h_%Growth_Rep2 [2, 23]: 100.96% | Pf_72h_%Growth_Rep1 [3, 24]: 103.28% | Pf_72h_%Growth_Rep2 [3, 25]: 92.51%

COc1ccc2c(c1OC)C(=O)O[C@@H]2[C@H]1c2c(cc3c(c2OC)OCO3)CCN1C [BIA-N1938]
Tg_72h_%Growth_Rep1 [1, 26]: 85.42% | Tg_72h_%Growth_Rep2 [1, 27]: 102.99% | Pf_120h_%Growth_Rep1 [2, 28]: 166.83% | Pf_120h_%Growth_Rep2 [2, 29]: 79.12% | Pf_72h_%Growth_Rep1 [3, 30]: 84.86% | Pf_72h_%Growth_Rep2 [3, 31]: 78.38%

Cn1c2ccccc2c(=O)c2c(O)cc3c(c21)C=CC(C)(C)O3 [BIA-N1949]
Tg_72h_%Growth_Rep1 [1, 26]: 111.30% | Tg_72h_%Growth_Rep2 [1, 27]: 95.22% | Pf_120h_%Growth_Rep1 [2, 28]: 85.11% | Pf_120h_%Growth_Rep2 [2, 29]: 95.19% | Pf_72h_%Growth_Rep1 [3, 30]: 90.51% | Pf_72h_%Growth_Rep2 [3, 31]: 117.30%
